Series [1] has as its system IEC-6 cells. Description: pERK expression in LPS-treated IEC-6 cells (SDS-PAGE). Format: cell-based. As to the method: (§1) FIG. 24A-C. MDP inhibits TLR4 signaling in enterocytes. A. IL-6 release in vitro as determined by ELISA in IEC-6 cells that were either untreated, or treated with LPS in the presence or absence of MDP. B. Serum IL-6 release in vivo in wild-type (open bars) and NOD2-deficient mice (solid bars) that were either pre-treated with saline or MDP then injected with LPS. C. SDS-PAGE showing the expression of phosphorylated ERK and beta-actin in IEC-6 cells that were treated with media (control), LPS, LPS with MDP, LPS with MDP-C which is a non-stimulatory analogue of MDP, and either MDP or MDP-C alone. **p<0.05 vs. control by ANOVA, *p<0.05 vs. LPS by ANOVA.
To further define the effects of MDP on LPS-mediated signaling in enterocytes, IEC-6 cells were treated with LPS in the presence or absence of MDP and the expression of the TLR4 downstream target pERK was assessed by SDS-PAGE. As is shown in FIG. 24C, LPS caused an increase in the expression of pERK compared with untreated cells. […] Taken together, these findings indicate that NOD2 activation with MDP leads to an inhibition of TLR4 signaling in enterocytes in vitro and in vivo.

For series [2], the system named is IEC-6 cells. Description: IL-6 release from LPS-treated IEC-6 cells (ELISA). Conditions: IEC-6 cells in vitro. Type of series: cell-based. The procedure: as §1
(§2) The next series of experiments were designed to further define the physiological significance of the finding that MDP reduces TLR4-mediated NFkB translocation in enterocytes, and to evaluate potential mechanisms involved. Since NFkB activation is known to lead to the release of pro-inflammatory cytokines including IL-6, experiments were performed to evaluate whether MDP would alter the extent of IL-6 release from LPS-treated IEC-6 cells. […] To determine the physiological significance of this work in vivo, wild-type and NOD2-knockout mice were injected with LPS (5 mg/kg) in the presence or absence of MDP (1 mg/kg), and serum IL-6 release—a measure of TLR4 signaling in vivo—was determined by ELISA.

In a further series the test system is IEC-6 enterocytes. The series can be described thus: TLR4-mediated NFkB (p65) translocation in IEC-6 enterocytes treated with LPS and MDP. Type of series: cell-based. To be noted: IEC-6 cells. The source says:
FIG. 23A-E. MDP prevents TLR4-mediated NFkB translocation in IEC-6 enterocytes. […] Representative of 5 separate experiments. **p<0.05 vs. control by ANOVA, *p<0.05 vs. LPS by ANOVA.
NOD2 activation with MDP inhibits TLR4 signaling in enterocytes. The next experiments were designed to determine whether NOD2 activation with MDP would inhibit TLR4 signaling in enterocytes. To do so, IEC-6 enterocytes—a cell line that represents a model system to study enterocyte biology and which expresses TLR4 (Neal et al., 2006, J Immunol 176:3070-3079)—were treated with LPS in the presence or absence of MDP. Since TLR4 signaling leads to the translocation of NFkB from the cytoplasm into the nucleus, the extent of TLR4 activation was evaluated using an immunofluorescence-based detection assay of the p65 subunit of NFkB. As is shown in FIG. 23A and quantified in FIG. 23E, in control cells, NFkB is localized in the cytoplasm. Upon treatment with LPS ([…], 1 h), NFkB was detected in the nucleus, indicative of NFkB activation (FIG. 23B).

For series [3], the system named is wild-type and NOD2-knockout mice. The series can be described thus: Serum IL-6 release in LPS-injected wild-type and NOD2-knockout mice (ELISA). Conditions: LPS 5 mg/kg, MDP 1 mg/kg. Type of series: in vivo, mouse. As to the method: as §1, §2
Another series concerns TLR4. The series can be described thus: TLR4 distribution and expression in enterocytes after MDP (immunohistochemistry, RT-PCR). Type of series: in vivo, mouse. As to the method:
FIG. 25. MDP treatment decreases TLR4 expression in enterocytes. Newborn mice were treated with LPS after pre-treatment with either saline or MDP. Three hours later mucosal scrapings were harvested from the terminal ileum, and subjected to RT-PCR for expression of TLR4. Representative of 4 separate experiments. Duplicate samples are shown for each group.
MDP treatment of enterocytes reduces the expression of TLR4. The next series of studies investigated the potential mechanisms by which MDP activation of NOD2 could lead to a reduction in the extent of TLR4 signaling.

Series [4] concerns models of ulcerative colitis. Conditions: previous reports; cited from earlier work.
The test system of series [5] is experimental NEC in newborn mice. The series can be described thus: Experimental necrotizing enterocolitis in newborn mice, MDP treatment. Format: in vivo, mouse. The procedure:
FIG. 26A-E. MDP prevents against the development of experimental NEC in vivo in newborn mice. Newborn mice were injected with saline or MDP daily for four days, and then were induced to develop NEC. A. Histology (H&E) of terminal ileum of breast fed mouse treated with saline control. B. Histology (H&E) of terminal ileum of breast fed mouse treated with MDP. C. Histology (H&E) of terminal ileum of mouse pre-treated with saline, after which NEC was induced. D. Histology (H&E) of terminal ileum of mouse pre-treated with MDP, after which conditions which induced NEC in saline-treated mice were applied. E: Severity of NEC in newborn mice as scored by a blinded pediatric pathologist. *p<0.05 vs. NEC in saline-injected mice. Representative of three separate experiments with over 5 animals per group.
NOD2 expression in the intestine is reduced in human and experimental necrotizing enterocolitis. […]
MDP prevents against the development of experimental necrotizing enterocolitis. […] It was also determined that mucosal NOD2 expression is decreased in experimental NEC (FIG. 22I). […]

The test system is the same in series [6]. The series can be described thus: Murine NEC model in NFkB-GFP transgenic mice (histology, mucosal TNF-α RTPCR, NFκB activation). Format: in vivo, mouse. The procedure:
FIG. 27A-G. CpG-ODN-HS and CpG-DNA reduce the development of experimental NEC in vivo in newborn mice. Newborn NEC and control mice were injected with CpG-ODN-HS or CpG-DNA. A. Histology (H&E) of terminal ileum of breast fed mouse. B. Histology (H&E) of terminal ileum of mouse after induction of NEC. C. Histology (H&E) of terminal ileum of mouse treated with CpG-DNA, after which conditions which induced NEC were applied. D. Histology (H&E) of terminal ileum of mouse treated with CpG-ODN-HS, after which conditions which induced NEC were applied. E. Histology (H&E) of terminal ileum of breast fed mouse treated with CpG-ODN-HS. F. Histology (H&E) of terminal ileum of breast fed mouse treated with CpG-DNA. G. Severity of NEC in newborn mice as scored by a blinded pediatric pathologist. *p<0.05 vs. NEC in saline-injected mice.
FIG. 28. CpG-ODN-HS and CpG-DNA reduce the expression of mucosal TNF-α in NEC newborn mice in vivo.
FIG. 29A-D. Confocal microscopy showing the extent of NFkB activation in mice with NEC in the absence or presence of CpG-ODN-HS. CpG-ODN-HS reduces the level of NFkB activation in NEC newborn mice in vivo. The mice express NFkB-GFP, and sections were stained with anti-GFP antibody (red; arrow).
The effect of the TLR9 agonist CpG-ODN 5′ […] 3′ (SEQ ID NO:10; referred to herein as CpG-ODN-HS) on the mediator of activated TLR4, NFκB, was examined in a murine NEC model (previously described, above). The effect of CpG-ODN-HS on inflammation in the NEC murine model was also examined as a measured by TNF-α expression, which is an index of inflammation.
Materials and methods. Phosphorothioated CpG-ODN-HS and oligodeoxynucleotide (ODN) 1826 ([…]) (SEQ ID NO:6; referred to herein as CpG-DNA) were synthesized by the University of Pittsburgh DNA synthesis facility. ODNs were confirmed to be endotoxin-free by Limulus assay. NFkB-GFP antibody was obtained from Santa Cruz and Abcam. The extent of nuclear translocation was determined in an adaptation of the methodology of Ding and colleagues. In brief, a threshold limit was set based upon the emission signal for the nuclear stain DRAQ5, which therefore defined a nuclear region of interest (ROI). To define a corresponding cytoplasmic region of interest, a circular region 12 pixels beyond the nucleus was stenciled upon each cell. The average integrated pixel intensity pertaining to the corresponding NFkB emission within the cytoplasmic and nuclear regions was then determined for more than 200 cells per treatment group in at least four experiments per group, using MetaMorph software version 6.1 (Molecular Devices Corporation, Downingtown, Pa.).
Mucosal TNF-α expression was measured using quantitative real-time PCR (RTPCR). Quantitative real-time PCR in cultured enterocytes and intestinal tissue using the BioRad iCycler (Biorad, Hercules, CA) was performed as in (Leaphart, C. L., J. Cavallo, S. C. Gribar, S. Cetin, J. Li, M. F. Branca, T. D. Dubowski, C. P. Sodhi, and D. J. Hackam. 2007. A Critical Role for TLR4 in the Pathogenesis of Necrotizing Enterocolitis by Modulating Intestinal Injury and Repair. J Immunology 179:4808-4820). Oligonucleotide primer pairs used for RTPCR were as follows: forward: 5′ […] 3′ (SEQ ID NO:14), reverse: 5′ […] 3′ (SEQ ID NO:15); and forward: 5′ […] 3′ (SEQ ID NO:16), reverse: 5′ […] 3′ (SEQ ID NO:17). Gene expression was normalized to β-actin expression. Where indicated, gene expression was assessed on 2.5% agarose gels using ethidium bromide staining. […]

Results on three compounds are retold here after US8518903B2, “Use of toll-like receptor-9 agonists” (University of Pittsburgh—of the Commonwealth System of …, priority 2007, dated 2013).

For `CC(=O)NC1C(O)OC(CO)C(O)C1OC(C)C(=O)NC(C)C(=O)NC(CCC(=O)O)C(N)=O` (stereo not shown) [MDPC], the “LPS-induced pERK expression” value with IEC-6 cells [1] was “did not reduce”. In the series with IEC-6 cells [2], the “LPS-induced IL-6 release” value is given as “did not reduce”.
Regarding `CC(=O)N[C@@H]1[C@@H](O[C@H](C)C(=O)N[C@@H](C)C(=O)N[C@H](CCC(=O)O)C(N)=O)[C@H](O)[C@@H](CO)O[C@H]1O` [MDP, muramyl-di-peptide], the “LPS-induced nuclear translocation of NFkB” value with IEC-6 enterocytes (LPS in the presence of MDP) was “reduction in nuclear translocation”. Moreover, the “extent of NFkB translocation” value with IEC-6 enterocytes (MDP alone) is recorded as “did not significantly alter”. Moreover, the “effect in reducing TLR4 signaling (serum IL-6 release)” value in series [3] (NOD2-knockout mice) is reported as “less pronounced”. Further, the “LPS-mediated serum IL-6 release” value in series [3] (wild-type mice) was “significantly reduced”. Besides, the “relative distribution of TLR4 in enterocytes” value with TLR4 (immunohistochemistry) was “does not alter”. Moreover, in the series with TLR4 (newborn mice, LPS after MDP pre-treatment, terminal ileum mucosal scrapings, RT-PCR), the “expression of TLR4 in enterocytes” value was “significant reduction”. In addition, the “degree of intestinal inflammation” value in series [4] was “can limit the degree of intestinal inflammation”. In series [5] (NOD2-wild-type mice, MDP 1 mg/ml daily for four days, vs saline), the “extent of NEC that developed (histology of terminal ileum)” value is reported as “striking reduction in the extent of NEC”. Further, the intestinal histology result in series [5] (breast fed mice, MDP alone) is reported as “did not alter intestinal histology”. Besides, the “LPS-induced pERK expression” value with IEC-6 cells [1] is “significantly reduced”. In addition, the “LPS-induced IL-6 release” value in the series with IEC-6 cells [2] is “significantly reduced”.
In the case of “5′ TCGTCGTTTTGTCGTTCCTGACGTT 3′ (listed as DNA, chemistry not fully specified) [CpG-ODN-HS, TLR9 agonist CpG-ODN]”, in series [6] (NEC mice expressing NFkB-GFP, confocal microscopy), the “activation of NFκB” value is given as “reduced”. For the same compound, the “level of expression of mucosal TNF-α in terminal ileum” value in series [6] (NEC mice, RTPCR) is recorded as “reduced”. In addition, the “NEC pathology (histology of terminal ileum)” value in series [6] (NEC mice, treated vs untreated) is given as “inhibition of the NEC pathology”.
